# Key:
# [1] = system: Nrf2; experiment: Nrf2 functional cell-based assay (DisoveRx), luminescence; conditions: for EC50: U2OS cells, 6 hours incubation, concentration that activates by 50% relative to the maximum effect
# Experimental: In order to confirm the pharmacological activity of the compounds synthesized according to Examples 1 to 18 of the present invention, the effects of the synthesized derivatives on inducing the activity of Nrf2, a major regulator of the defense against oxidative stress, were evaluated by constructing an Nrf2 functional cell-based assay (DisoveRx). Specifically, U2OS cells were used, and after the cell pellet was released with CP 0 reagent, the cells were loaded in an amount of 80 μL into a 96-well plate at a density of 1.5×10^4 cells/well and incubated for 24 hours. The compounds synthesized according to Examples 1 to 18 were diluted 3 times in DMSO at 7 different concentrations to prepare a stock solution. 10 μL. of each compound solution was mixed with 90 μL of CP 0 and added in an amount of 20 μL to each well of the 96-well plate, and each experiment was repeated three times. […] Substrate reagents 1 and 2 were added to the cell assay buffer and mixed, and then 50 μL of the substrate reagent was added to a 96-well plate per well, wrapped in foil, and incubated for 1 hour. Thereafter, the luminescence value was measured at all wavelengths and at integration time of 100 ms using a luminescence spectrophotometer (Molecular Devices). […] The results are shown in Table 5 below, and the efficacy of the compounds was compared as a percentage with respect to the sulforaphane-treated group. As another control group, a chalcone derivative, VSC2 ((F)-1-(2-((2-methoxyphenyl)sulfonyl)vinyl)-2-chlorobenzene, Woo et al., J. Med. Chem., 2014, 57:1473-1487), which has a parent structure similar to that of the present invention, and which has been confirmed to induce activation of Nrf2 through the structural changes of Keap1, was used.
# [2] = molecular target: T1, CYP 2D6 (Homo sapiens, UniProt P10635); experiment: Inhibition of CYP activity in human liver microsomes, 2D6; format: in vitro ADME; conditions: 10 μM compound, human liver microsomes 0.25 mg/mL; % activity relative to the negative control
# T1 construct: from tissue; host or cells: human liver microsomes
# T1 sequence (P10635 whole entry): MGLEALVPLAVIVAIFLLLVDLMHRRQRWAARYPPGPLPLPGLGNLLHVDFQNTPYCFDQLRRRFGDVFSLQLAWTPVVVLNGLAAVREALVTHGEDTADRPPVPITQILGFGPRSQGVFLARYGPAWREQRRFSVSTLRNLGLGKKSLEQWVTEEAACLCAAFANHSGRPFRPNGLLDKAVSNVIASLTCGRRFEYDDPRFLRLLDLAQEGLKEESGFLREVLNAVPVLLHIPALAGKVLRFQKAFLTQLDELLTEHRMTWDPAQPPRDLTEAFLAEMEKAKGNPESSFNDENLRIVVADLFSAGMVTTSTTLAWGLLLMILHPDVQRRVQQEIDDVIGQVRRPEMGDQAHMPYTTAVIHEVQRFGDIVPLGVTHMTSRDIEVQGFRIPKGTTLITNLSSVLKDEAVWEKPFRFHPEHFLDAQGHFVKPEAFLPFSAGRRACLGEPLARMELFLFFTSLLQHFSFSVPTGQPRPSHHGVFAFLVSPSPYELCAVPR
# Experimental: (§1) Thereafter, the reaction was terminated by adding an acetonitrile solution containing an internal standard substrate (terfenadine), followed by centrifugation (14,000 rpm, 4° C.) for 5 minutes. Subsequently, the supernatant was injected into the LC-MS/MS system, and the metabolites of the substrate drugs were simultaneously analyzed to evaluate the inhibitory ability of these compounds on drug metabolic enzymes. The metabolites of each CYP isoenzyme indicator drug generated through the above reaction were analyzed using the Shimadzu Nexera XR system and TSQ vantage (Thermo). A Kinetex C18 column was used as the HPLC column, and distilled water containing 0.1% formic acid and acetonitrile containing 0.1% formic acid were used as the mobile phase. The generated metabolites were quantified using the quantification mode of multiple reaction monitoring (MRM), and data were analyzed with Xcalibur (version 1.6.1).
# [3] = molecular target: T2, CYP 1A2 (Homo sapiens, UniProt P05177); experiment: Inhibition of CYP activity in human liver microsomes, 1A2; format: in vitro ADME; conditions: 10 μM compound, human liver microsomes 0.25 mg/mL; % activity relative to the negative control
# T2 construct: from tissue; host or cells: human liver microsomes
# T2 sequence (P05177 1-516): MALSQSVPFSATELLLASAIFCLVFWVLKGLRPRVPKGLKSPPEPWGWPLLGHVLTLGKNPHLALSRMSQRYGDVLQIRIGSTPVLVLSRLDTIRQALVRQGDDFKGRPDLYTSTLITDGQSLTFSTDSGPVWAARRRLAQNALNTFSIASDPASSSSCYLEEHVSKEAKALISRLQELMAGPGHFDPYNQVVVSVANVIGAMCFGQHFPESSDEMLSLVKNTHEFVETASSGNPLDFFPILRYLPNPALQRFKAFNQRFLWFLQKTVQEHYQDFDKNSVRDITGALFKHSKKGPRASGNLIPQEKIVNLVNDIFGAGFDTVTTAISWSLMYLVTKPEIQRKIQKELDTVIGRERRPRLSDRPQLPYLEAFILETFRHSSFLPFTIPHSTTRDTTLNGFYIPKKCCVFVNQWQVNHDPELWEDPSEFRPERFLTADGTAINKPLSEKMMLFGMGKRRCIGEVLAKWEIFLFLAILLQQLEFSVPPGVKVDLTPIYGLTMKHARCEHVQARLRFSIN
# Experimental: as §1
# [4] = molecular target: T3, CYP 2C9 (Homo sapiens, UniProt P11712); experiment: Inhibition of CYP activity in human liver microsomes, 2C9; format: in vitro ADME; conditions: 10 μM compound, human liver microsomes 0.25 mg/mL; % activity relative to the negative control
# T3 construct: from tissue; host or cells: human liver microsomes
# T3 sequence (P11712 whole entry): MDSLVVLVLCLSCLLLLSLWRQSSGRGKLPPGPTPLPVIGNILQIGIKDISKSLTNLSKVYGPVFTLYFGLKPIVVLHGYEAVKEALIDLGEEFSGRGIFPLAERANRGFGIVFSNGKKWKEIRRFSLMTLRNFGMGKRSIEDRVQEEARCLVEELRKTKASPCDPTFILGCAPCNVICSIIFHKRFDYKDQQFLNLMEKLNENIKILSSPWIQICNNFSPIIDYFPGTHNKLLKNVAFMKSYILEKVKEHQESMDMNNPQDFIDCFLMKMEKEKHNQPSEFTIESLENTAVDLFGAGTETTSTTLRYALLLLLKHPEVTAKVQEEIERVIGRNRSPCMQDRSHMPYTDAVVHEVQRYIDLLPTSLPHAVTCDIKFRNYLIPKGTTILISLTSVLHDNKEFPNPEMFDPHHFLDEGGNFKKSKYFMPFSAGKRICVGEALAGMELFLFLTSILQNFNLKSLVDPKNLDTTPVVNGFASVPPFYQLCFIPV
# Experimental: as §1
# [5] = molecular target: T4, CYP 3A4 (Homo sapiens, UniProt P08684); experiment: Inhibition of CYP activity in human liver microsomes, 3A4; format: in vitro ADME; conditions: 10 μM compound, human liver microsomes 0.25 mg/mL; % activity relative to the negative control
# T4 construct: from tissue; host or cells: human liver microsomes
# T4 sequence (P08684 whole entry): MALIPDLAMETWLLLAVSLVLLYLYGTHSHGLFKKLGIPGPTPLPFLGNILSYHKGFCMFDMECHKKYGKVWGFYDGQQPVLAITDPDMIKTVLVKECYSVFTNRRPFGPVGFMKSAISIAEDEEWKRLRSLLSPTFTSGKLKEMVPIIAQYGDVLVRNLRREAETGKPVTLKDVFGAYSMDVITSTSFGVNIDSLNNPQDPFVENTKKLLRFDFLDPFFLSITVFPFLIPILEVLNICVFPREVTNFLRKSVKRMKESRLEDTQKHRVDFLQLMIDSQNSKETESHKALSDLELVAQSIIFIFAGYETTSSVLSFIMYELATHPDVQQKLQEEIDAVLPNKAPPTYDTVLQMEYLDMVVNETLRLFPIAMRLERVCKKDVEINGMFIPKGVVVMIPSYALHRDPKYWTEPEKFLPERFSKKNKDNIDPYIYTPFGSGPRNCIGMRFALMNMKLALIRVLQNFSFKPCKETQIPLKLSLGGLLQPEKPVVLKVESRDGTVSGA
# Experimental: as §1
# [6] = molecular target: T5, CYP 2C19 (Homo sapiens, UniProt P33261); experiment: Inhibition of CYP activity in human liver microsomes, 2C19; format: in vitro ADME; conditions: 10 μM compound, human liver microsomes 0.25 mg/mL; % activity relative to the negative control
# T5 construct: from tissue; host or cells: human liver microsomes
# T5 sequence (P33261 whole entry): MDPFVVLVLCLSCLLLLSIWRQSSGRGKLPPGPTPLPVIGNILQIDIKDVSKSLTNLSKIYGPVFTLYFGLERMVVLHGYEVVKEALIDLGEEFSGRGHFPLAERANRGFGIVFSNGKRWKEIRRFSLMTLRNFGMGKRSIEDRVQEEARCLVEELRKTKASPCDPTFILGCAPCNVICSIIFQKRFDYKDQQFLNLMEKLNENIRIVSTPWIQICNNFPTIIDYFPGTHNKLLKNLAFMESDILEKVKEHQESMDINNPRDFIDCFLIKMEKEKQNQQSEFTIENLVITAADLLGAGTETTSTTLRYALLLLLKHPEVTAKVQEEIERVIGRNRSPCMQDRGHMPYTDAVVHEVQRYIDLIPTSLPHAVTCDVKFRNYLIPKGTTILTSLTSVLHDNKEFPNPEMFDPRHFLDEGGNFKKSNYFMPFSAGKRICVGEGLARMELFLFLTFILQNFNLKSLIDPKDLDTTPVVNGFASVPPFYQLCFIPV
# Experimental: as §1
# [7] = Solubility in water; format: physicochemical
# Text: In the development of new drugs, the solubility of drugs is one of the very important factors associated with the bio-absorption rate. […] In addition, drugs with low solubility may crystallize in tissues or cause serious toxicity, and thus, the FDA requires additional research results on oral drugs with low solubility. Furthermore, low solubility may also be the biggest cause of failure in the development of candidate materials.
# [8] = system: Nrf2; experiment: Nrf2 functional cell-based assay (DisoveRx), luminescence; conditions: relative to Compound 15
smiles,measurement,setting,value
"O=S(=O)(/C=C/c1ncccc1Cl)c1ccccc1Cl [Compound 10, (E)-3-chloro-2-(2-(2-chlorophenylsulfonyl)vinyl)pyridine]",EC50,[1],26 nM
same,Nrf2 activation effect relative to sulforaphane,[1]; ratio to sulforaphane,≥ 15 times
"O=S(=O)(/C=C/c1ncccc1Cl)c1ccc(Cl)cc1 [Compound 12, (E)-3-chloro-2-(2-(4-chlorophenylsulfonyl)vinyl)pyridine]",EC50,[1],65 nM
"O=S(=O)(/C=C/c1ncccc1F)c1ccccc1F [Compound 1, (E)-3-fluoro-2-(2-(2-fluorophenylsulfonyl)vinyl)pyridine]",CYP 2D6 activity,[2],87.0%
same,CYP 1A2 activity,[3],96.0%
same,CYP 2C9 activity,[4],100.0%
same,EC50,[1],176 nM
same,CYP 3A4 activity,[5],100.0%
same,CYP 2C19 activity,[6],65.9%
"O=S(=O)(/C=C/c1ncccc1Cl)c1ccc(F)cc1 [Compound 6, (E)-3-chloro-2-(2-(4-fluorophenylsulfonyl)vinyl)pyridine]",EC50,[1],231 nM
"O=S(=O)(/C=C/c1ncccc1F)c1cccc(Cl)c1 [Compound 8, (E)-2-(2-(3-chlorophenylsulfonyl)vinyl)-3-fluoropyridine]",EC50,[1],198 nM
"O=S(=O)(/C=C/c1ncccc1F)c1ccc(Cl)cc1 [Compound 9, (E)-2-(2-(4-chlorophenylsulfonyl)vinyl)-3-fluoropyridine]",EC50,[1],286 nM
"COc1ccccc1S(=O)(=O)/C=C/c1cccnc1Cl [Comparative Example 2, (E)-2-chloro-3-(2-(2-methoxyphenylsulfonyl)vinyl)pyridine, reference compound]",solubility,[7],< 10 µg/mL
same,Effect of inducing Nrf2 activity as % of the level of Compound 15,[8],~10%
"O=S(=O)(/C=C/c1ncccc1Cl)c1ccccc1F [Compound 4, (E)-3-chloro-2-(2-(2-fluorophenylsulfonyl)vinyl)pyridine]",CYP 2D6 activity,[2],86.0%
same,CYP 1A2 activity,[3],96.0%
same,CYP 2C9 activity,[4],62.6%
same,EC50,[1],30 nM
same,CYP 3A4 activity,[5],100.0%
same,CYP 2C19 activity,[6],47.3%
"O=S(=O)(/C=C/c1ncccc1Cl)c1cccc(Cl)c1 [Compound 11, (E)-3-chloro-2-(2-(3-chlorophenylsulfonyl)vinyl)pyridine]",EC50,[1],46 nM
"O=S(=O)(/C=C/c1cccnc1Cl)c1ccccc1Cl [Compound 14, (E)-2-chloro-3-(2-(2-chlorophenylsulfonyl)vinyl)pyridine]",EC50,[1],384 nM
"O=S(=O)(/C=C/c1ncccc1F)c1ccc(F)cc1 [Compound 3, (E)-3-fluoro-2-(2-(4-fluorophenylsulfonyl)vinyl)pyridine]",EC50,[1],542 nM
"CN1CCN(C(=O)COc2ccc(S(=O)(=O)/C=C/c3ncccc3F)cc2)CC1.Cl [Compound 17, (E)-2-(4-(2-(3-fluoropyridin-2-yl)vinylsulfonyl)phenoxy)-1-(4-methylpiperazin-1-yl)ethanone hydrochloride]",CYP 2C9 activity,[4],122.0%
"O=S(=O)(/C=C/c1ncccc1Cl)c1cccc(F)c1 [Compound 5, (E)-3-chloro-2-(2-(3-fluorophenylsulfonyl)vinyl)pyridine]",EC50,[1],84 nM
"O=S(=O)(/C=C/c1cccc(Cl)n1)c1ccccc1Cl [Compound 13, (E)-2-chloro-6-(2-(2-chlorophenylsulfonyl)vinyl)pyridine]",CYP 2D6 activity,[2],100.0%
same,CYP 1A2 activity,[3],94.0%
same,CYP 2C9 activity,[4],100.0%
same,EC50,[1],147 nM
same,CYP 3A4 activity,[5],86.0%
same,CYP 2C19 activity,[6],40.0%
"O=S(=O)(/C=C/c1ncccc1F)c1ccccc1Cl [Compound 7, (E)-2-(2-(2-chlorophenylsulfonyl)vinyl)-3-fluoropyridine]",EC50,[1],122 nM
"O=S(=O)(/C=C/c1ncccc1F)c1cccc(F)c1 [Compound 2, (E)-3-fluoro-2-(2-(3-fluorophenylsulfonyl)vinyl)pyridine]",EC50,[1],474 nM
